Experimental data as given in ChEMBL document CHEMBL1127876, “Potent imidazole angiotensinII antagonists: acyl sulfonamides and acyl sulfamides as tetrazole replacements” (Bioorg Med Chem Lett, 1994).

Assays:
[1] = target: T1, Type-1 angiotensin II receptor (Oryctolagus cuniculus, UniProt P34976); assay: In vitro inhibitory activity against Angiotensin II receptor, type 1 to displace 125I-Sar,Ile8-AII in rabbit aorta; type: tissue-based
T1 sequence (P34976 whole entry): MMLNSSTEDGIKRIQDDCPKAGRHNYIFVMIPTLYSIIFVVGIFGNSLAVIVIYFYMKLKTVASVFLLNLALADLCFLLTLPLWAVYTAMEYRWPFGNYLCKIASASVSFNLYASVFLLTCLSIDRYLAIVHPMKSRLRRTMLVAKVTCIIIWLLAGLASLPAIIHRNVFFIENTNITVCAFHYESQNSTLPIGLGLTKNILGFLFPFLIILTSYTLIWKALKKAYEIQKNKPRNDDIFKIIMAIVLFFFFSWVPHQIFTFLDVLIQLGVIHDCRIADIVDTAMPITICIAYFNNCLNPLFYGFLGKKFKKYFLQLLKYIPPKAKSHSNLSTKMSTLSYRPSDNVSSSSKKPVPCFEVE

[2] = target: T2, Type-2 angiotensin II receptor (Rattus norvegicus, UniProt P35351); assay: In vitro inhibitory activity against angiotensin II (AT2) receptor to displace 125I-Sar,Ile8-AII in rat midbrain
T2 sequence (P35351 whole entry): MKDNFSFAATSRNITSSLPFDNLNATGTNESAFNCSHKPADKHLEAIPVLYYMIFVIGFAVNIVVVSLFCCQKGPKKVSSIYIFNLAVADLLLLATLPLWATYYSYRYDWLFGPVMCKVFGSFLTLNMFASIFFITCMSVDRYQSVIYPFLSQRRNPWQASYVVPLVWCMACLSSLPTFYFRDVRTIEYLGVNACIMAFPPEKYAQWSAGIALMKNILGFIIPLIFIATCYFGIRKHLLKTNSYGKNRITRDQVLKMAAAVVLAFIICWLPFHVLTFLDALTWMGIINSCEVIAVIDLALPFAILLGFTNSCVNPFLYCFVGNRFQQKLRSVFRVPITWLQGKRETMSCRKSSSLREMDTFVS

IC50 [1] [µM] | IC50 [2] [µM] | Structure (SMILES)
0.0005 | 1 | CCCc1nc(CC)c(C(=O)OC)n1Cc1ccc(-c2ccccc2S(=O)(=O)NC(=O)c2ccccc2)cc1
0.0062 | 4.5 | CCCCc1ncc(C(=O)O)n1Cc1ccc(-c2ccccc2S(=O)(=O)NC(=O)c2ccccc2)cc1
0.0074 | > 10 | CCCCc1ncc(C(=O)O)n1Cc1ccc(-c2ccccc2NS(=O)(=O)NC(=O)C2CC2)cc1
0.021 | > 1 | CCCCc1ncc(C(=O)OC)n1Cc1ccc(-c2ccccc2S(=O)(=O)NC(=O)c2ccccc2)cc1
0.0017 | 7 | CCCc1nc(CC)c(C(=O)O)n1Cc1ccc(-c2ccccc2S(=O)(=O)NC(=O)c2ccccc2)cc1
0.008 | > 30 | CCCc1nc(CC)c(C=O)n1Cc1ccc(-c2ccccc2-c2nnn[nH]2)cc1
0.0019 | 0.5 | CCCCCCCC(=O)NS(=O)(=O)Nc1ccccc1-c1ccc(Cn2c(C(=O)OC)cnc2CCCC)cc1
0.039 | 8 | CCCCc1ncc(C(=O)OC)n1Cc1ccc(-c2ccccc2S(=O)(=O)NC(=O)C2CC2)cc1
0.0058 | 5.8 | CCCCc1ncc(C(=O)O)n1Cc1ccc(-c2ccccc2S(=O)(=O)NC(=O)C2CC2)cc1
0.0088 | 5.3 | CCCCc1nc(Cl)c(C(=O)OC)n1Cc1ccc(-c2ccccc2S(=O)(=O)NC(=O)c2ccccc2)cc1
0.006 | > 10 | CCCCc1ncc(C(=O)O)n1Cc1ccc(-c2ccccc2NS(=O)(=O)NC(=O)c2ccccc2)cc1

The next lines start with the molecule.

Structure (SMILES) | IC50 [1] [µM] | IC50 [2] [µM]
CCCc1nc(CC)c(C(=O)O)n1Cc1ccc(-c2ccccc2-c2nnn[nH]2)cc1 | 0.006 | > 1
CCCc1nc(CC)c(C(=O)OC)n1Cc1ccc(-c2ccccc2S(=O)(=O)NC(=O)C2CC2)cc1 | 0.0026 | 2.1
CCCc1nc(CC)c(C(=O)O)n1Cc1ccc(-c2ccccc2S(=O)(=O)NC(=O)C2CC2)cc1 | 0.0043 | > 10
CCCCc1nc(Cl)c(C(=O)OC)n1Cc1ccc(-c2ccccc2-c2nn[nH]n2)cc1 | 0.013 | > 50
CCCCc1nc(Cl)c(C(=O)O)n1Cc1ccc(-c2ccccc2S(=O)(=O)NC(=O)c2ccccc2)cc1 | 0.002 | 9.5
CCCCc1ncc(C(=O)O)n1Cc1ccc(-c2ccccc2-c2nn[nH]n2)cc1 | 0.0029 | > 50
CCCCc1ncc(C(=O)OC)n1Cc1ccc(-c2ccccc2NS(=O)(=O)NC(=O)c2ccccc2)cc1 | 0.02 | 1.8
CCCc1nc(CC)c(C=O)n1Cc1ccc(-c2ccccc2S(=O)(=O)NC(=O)C2CC2)cc1 | 0.012 | 2
CCCCCCCC(=O)NS(=O)(=O)Nc1ccccc1-c1ccc(Cn2c(C(=O)O)cnc2CCCC)cc1 | 0.0002 | 2.3
CCCCc1ncc(C(=O)OC)n1Cc1ccc(-c2ccccc2NS(=O)(=O)NC(=O)C2CC2)cc1 | 0.032 | 10
CCCCc1ncc(C(=O)OC)n1Cc1ccc(-c2ccccc2-c2nn[nH]n2)cc1 | 0.015 | > 50
CCCc1nc(CC)c(C=O)n1Cc1ccc(-c2ccccc2S(=O)(=O)NC(=O)c2ccccc2)cc1 | 0.0024 | 
